# Laboratory results from patent publication US4741899A, “Process for arresting the proliferation of organisms that convert axillary secretions to malodorous materials” (Bristol-Myers Company, priority 1983, dated 1988).
# Counter-ions that a name gives are not always drawn.
# Legend:
# Staph (Axilla) = experiment: In vitro minimum inhibitory (bactericidal) concentration, Staph (Axilla); assay type: cell-based, staphylococci; conditions: 24 hrs. at 35° C., subculture further 24 hrs.; liquid culture medium
# Procedure: (§1) To test the activity of the compounds employed in the present invention in arresting the proliferation of axillary organisms (e.g. corynebacteria and staphylococci) the following in vitro study was carried out:
# (§2) Aqueous solutions (or suspensions) were prepared for each test substance. Serial two-fold dilutions of the above were then made in liquid culture medium. Each tube (10 ml of liquid) in the dilution series was inoculated with 0.2 ml of a 1:500 dilution of 24 hr. culture of bacteria. After 24 hrs. at 35° C., tubes showing turbidity (growth) were noted. All non-turbid dilutions were subcultured to liquid growth medium and incubated an additional 24 hrs. at 35° C. The lowest concentration of substance which yielded no growth upon subculture was noted as the minimum inhibitory (bactericidal) concentration (=MIC).
# (§3) The numbers appearing in columns 2 and 3 give the minimum inhibitory concentration in percent (MIC %) for the materials tested i.e. the minimum concentration in percent of the agent tested which will inhibit the proliferation of the test organisms. The entries in the last column are judgments with respect to the activity of the agent tested.
# Diphth (Axilla) = experiment: In vitro minimum inhibitory (bactericidal) concentration, Diphth (Axilla); assay type: cell-based, aerobic diphtheroids (corynebacteria); conditions: 24 hrs. at 35° C., subculture further 24 hrs.; liquid culture medium
# Procedure: as §1, §2, §3
# [1] = system: axillary organisms (e.g. corynebacteria and staphylococci); experiment: In vitro Studies - Summary, judgment of activity against axillary organisms; assay type: cell-based; conditions: Staph and Diphth (Axilla)
# Procedure: as §1, §2, §3
Compound,"MIC (%) - cidal, Staph (Axilla) (Staph (Axilla)) [%]","MIC (%) - cidal, Diphth (Axilla) (Diphth (Axilla)) [%]",Comments (judgment with respect to the activity of the agent tested) [1]
CC(CNC1CCCCC1)OC(=O)c1ccccc1 (stereo not drawn) [Hexylcaine HCl],0.16,0.16,
c1ccc2c(CC3=NCCN3)cccc2c1 [Naphazoline HCl],0.31,0.31,
CN1CCC2=C(C1)C(c1ccccc1)c1ccccc12 (stereo not drawn) [Phenindamine tartrate],0.04,0.08,Good Activity
COc1ccc(CN(CCN(C)C)c2ccccn2)cc1 [Pyrilamine maleate],0.63,0.63,
CCCCNc1ccc(C(=O)OCCN(C)C)cc1 [Tetracaine HCl],0.08,0.08,
CN(C)CCN(Cc1ccccc1)c1ccccn1 [Tripelennamine HCl],0.63,0.31,
Cc1cc(C(C)(C)C)cc(C)c1CC1=NCCN1 [Xylometazoline HCl],0.08,0.04,
